PubChem BioAssay (NCI)
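These data come from cells grown in 96-well plates and exposed to compound for 48 hours at five concentrations. TGI marks complete inhibition of growth.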

Tests used:
Test in all cases: NCI tumour cell line growth inhibition, 48 h
A549 NSCLC = system: A549 NSCLC
SK-MEL-28 melanoma = system: SK-MEL-28 melanoma
HCT-116 colon = system: HCT-116 colon
NCI/ADR-RES ovarian = system: NCI/ADR-RES ovarian
HL-60(TB) leukemia = system: HL-60(TB) leukemia
NCI-H460 lung = system: NCI-H460 lung
A498 renal = system: A498 renal
HOP-62 NSCLC = system: HOP-62 NSCLC
SN12C renal = system: SN12C renal
SF-539 CNS = system: SF-539 CNS
CAKI-1 renal = system: CAKI-1 renal
RXF 393 renal = system: RXF 393 renal
MDA-MB-231 breast = system: MDA-MB-231 breast
BT-549 breast = system: BT-549 breast
COLO 205 colon = system: COLO 205 colon
HOP-92 NSCLC = system: HOP-92 NSCLC
NCI-H226 lung = system: NCI-H226 lung
TK-10 renal = system: TK-10 renal
SW-620 colon = system: SW-620 colon
MDA-MB-435 = system: MDA-MB-435

SMILES | TGI (A549 NSCLC) | TGI (SK-MEL-28 melanoma) | TGI (HCT-116 colon) | TGI (NCI/ADR-RES ovarian) | TGI (HL-60(TB) leukemia) | TGI (NCI-H460 lung) | TGI (A498 renal) | TGI (HOP-62 NSCLC) | TGI (SN12C renal) | TGI (SF-539 CNS) | TGI (CAKI-1 renal) | TGI (RXF 393 renal) | TGI (MDA-MB-231 breast) | TGI (BT-549 breast) | TGI (COLO 205 colon) | TGI (HOP-92 NSCLC) | TGI (NCI-H226 lung) | TGI (TK-10 renal) | TGI (SW-620 colon) | TGI (MDA-MB-435)
Cc1ccc(NC(=O)CSc2nc(C)nc3c2sc(=S)n3-c2ccccc2)cc1 | > 10 µM | > 10 µM | > 10 µM | > 10 µM | > 10 µM | > 10 µM | > 10 µM | 5.08 µM | > 10 µM | 7.81 µM | > 10 µM | 9.17 µM | > 10 µM | 9.55 µM | > 10 µM | 9.04 µM | 9.43 µM | > 10 µM | > 10 µM | > 10 µM
O=C1c2ccccc2C(=O)[C@@]23O[C@@]12C1(Oc2cccc4cccc(c24)O1)[C@@H]1O[C@@H]1[C@@H]3O | > 49 µM | > 54.1 µM | 15.1 µM | 15.7 µM | 4.89 µM | 23.6 µM | > 100 µM | 25.7 µM | 26.1 µM | 9.56 µM | 24.5 µM | 10.4 µM | 41.1 µM | 11.1 µM | 27 µM | 31.9 µM | 28.9 µM | 15.9 µM | > 49.1 µM | > 59.6 µM
N#CCCCC[N+]12CN3CN(CN(C3)C1)C2 | > 100 µM | > 100 µM | > 100 µM | > 100 µM | > 100 µM | > 100 µM | > 100 µM | > 100 µM | > 100 µM | 54 µM | > 100 µM | > 100 µM | > 100 µM | > 100 µM | > 100 µM | > 100 µM | > 100 µM | > 100 µM | > 100 µM | > 100 µM
